{
  "source": "patent US20070191288A1",
  "about": "“Treatments for Benign Tumors, Cancers, Neoplasias, and/or Other Inflammatory Disorders or Diseases” (priority 2002, published 2007)",
  "key": {"[1]": {"system": "simple and complex partial seizures and secondarily generalized seizures", "conditions": "clinical trials of human epilepsy; adjunctive therapy or monotherapy; cited from earlier work"}, "[2]": {"system": "lipoma", "test": "Effects of topiramate on lipoma in a dog", "assay_type": "in vivo", "conditions": "12-year-old female German Shorthaired Pointer (30.8 kg), large lipoma on right rib cage; topiramate 25 mg/day once per day, 59 days versus 24 days", "description": "FIG. 1A, depicts the size of a lipoma on a dog treated with topiramate for 24 days. FIG. 1B illustrates the reduction in lipoma size on the dog after topiramate had been administered for 59 days (25 mg/day administered once per day)."}},
  "data": [
    {"smiles": "CC1(C)O[C@@H]2[C@@H](CO[C@@]3(COS(N)(=O)=O)OC(C)(C)O[C@@H]23)O1", "note": "[topiramate, 2,3:4,5-bis-O-(1-methylethylidene)-β-D-fructopyranose sulfamate]", "values": [
      {"measurement": "efficacy in treating simple and complex partial seizures and secondarily generalized seizures", "setting": "[1]", "result": "effective"},
      {"measurement": "reduction in lipoma size/mass", "setting": "[2]", "result": "shrunk considerably"}
    ]}
  ]
}
